From patent publication US20070032418A1, “Small-molecule inhibitors of angiogenin and rnases and in vivo and in vitro methods of using same” (Ambion, Inc, priority 2003, published 2007)
Read-outs that look alike come from different tables or passages of the source. Values belong to the compound of their own block, whether it stands above or below them.

Columns and labels:
MMLV RT RNase H = MMLV RT RNase H (Moloney murine leukemia virus, UniProt P03355); experiment: Inhibition of RT-based RNase H cleavage of RNA:DNA hybrid; assay type: biochemical; settings: for % Cleavage: no inhibitor: 36%, 5 min at 37 C
Experimental: As described above, Chembridge compound #467929 offered protection from several RNA-specific endonucleolytic activities. […] A 20-mer DNA oligonucleotide was asymmetrically annealed to a 1500 base synthetic RNA to create an RNA:DNA duplex substrate for RNase H. Reactions were initiated with 10 U of MMLV RT in 1×RT buffer (50 mM TrisCl pH 8.3, 75 mM KCl, 3 mM MgCl2, 5 mM DTT) containing 500 ng/ul RNA:DNA hybrid. All reactions contained 5% DMSO either with or without the small molecule RNase inhibitor. Samples were incubated for 5 min at 37 C, and quenched with EDTA. Products were resolved on an RNA LabChip. Cleavage products were observed as two equally represented RNA species of 1000 and 500 bases. Product length and yield were determined using the 2100 BioAnalyzer software (Agilent). Table 4 details the level of inhibition of MMLV RT RNase H that is observed as a function of the concentration of compounds 467929 and 227726.

angiogenin (ANG) = angiogenin (ANG) (Homo sapiens, UniProt P03950); experiment: Inhibition of ANG ribonucleolytic activity, HPLC assay of oligonucleotide cleavage; assay type: biochemical
angiogenin (ANG), sequence (P03950 25-147): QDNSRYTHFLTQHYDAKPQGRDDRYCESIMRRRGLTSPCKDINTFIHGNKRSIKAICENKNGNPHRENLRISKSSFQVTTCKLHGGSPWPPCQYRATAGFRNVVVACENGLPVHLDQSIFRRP
Experimental: Reaction mixtures with and without test compounds were chromatographed on a Mono Q anion-exchange column with an NaCl gradient in 10 mM Tris, pH 8. […] This information was used to calculate kcat/Km values, which were then fitted to the equation (kcat/Km)i=(kcat/Km)0/[…], where (kcat/Km)i and (kcat/Km)0 are defined as the values in the presence and absence of inhibitor, respectively, and [I] is defined as the inhibitor concentration. At least four concentrations (in a range of about 10 μM-above 100 μM) were used in the final hit confirmation in order to distinguish all true hits.
Chemical structures of selected compounds are shown in these Tables and in FIGS. 4 and 5.

[1] = target: T1, bovine pancreatic RNase A (Bos taurus, UniProt P61823); experiment: Inhibition of bovine pancreatic RNase A (specificity versus ANG); assay type: biochemical
T1 sequence (P61823 27-150): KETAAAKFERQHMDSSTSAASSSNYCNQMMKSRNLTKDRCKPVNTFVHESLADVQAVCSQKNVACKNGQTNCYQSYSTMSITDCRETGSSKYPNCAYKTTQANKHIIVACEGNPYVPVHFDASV

[2] = test system: PC-3 human prostate tumor cells; experiment: PC-3 tumor formation in athymic mice; assay type: in vivo; settings: PC-3 s.c.
Experimental: Compound NCI-65828 was identified by HTS as an ANG inhibitor. […] Each compound was administered 6 times per week, in doses of 40 μg, 8 μg, and 1.6 μg (about 2, 0.4 and 0.08 mg/kg/day). The compound was dissolved in DMSO, and control mice received a corresponding volume of DMSO (4%, 0.8% and 0%). Another control group received saline.
Another in vivo mouse experiment was performed using 8 or 12 mice per group. The experimental group was administered PC-3 cells and NCI-65828, as intraperitoneal injections (40 μg and 8 μg). A control group of mice was administered PC-3 cells and a related compound that was known to be ineffective at inhibiting ANG enzymatic activity. Mice were evaluated for number of animals that remained tumor free as a function of time, at intervals of 3 days from days 14-42 following the initial injection.
Concentrated stocks of inhibitors were prepared in dimethylsulfoxide (DMSO), and the inhibitors were diluted into phosphate-buffered saline (PBS); the final DMSO concentration for the 40 μg and 20 μg doses was 4% in PBS, and that for the 8 μg and 4 μg doses was 0.8% in PBS. Statistical significance (P values) was determined from Mantel-Cox tests performed on Kaplan-Meier survivor functions. Results for inhibitor-treated groups were compared to results obtained with the appropriate DMSO control groups. A positive control group of mice, administered antisense DNA specific for the ANG gene in PBS (no DMSO), was also included. ANG antisense DNA was shown previously to be extremely effective in this tumor model.
Tumor cells from a human prostate cancer (PC-3) were injected subcutaneously (s.c.) in the shoulder of 6-7 week old athymic (nude) mice on day 0. Treatment with the indicated amount of inhibitor (in 100 μL) was given subcutaneously in the same area as the cells, 6 times per week, with the first injection 5-10 minutes prior to injection of the cells. The total dosage was 0.4 mg to 2 mg per kg per day.

[3] = 20 mM Hepes, 100 mM NaCl, pH 7.0, 37° C., read-out: Ki for inhibition of the ribonucleolytic activity of angiogenin

Ki (angiogenin (ANG); read-out: KI): 3 µM
Structure (SMILES): Cc1cc(NC(=O)c2ccc(/N=N/c3c(O)c(S(=O)(=O)O)cc4cc(S(=O)(=O)O)ccc34)cc2)ccc1/N=N/c1ccc2cc(S(=O)(=O)O)cc(S(=O)(=O)O)c2c1 [NCI-65845]

Ki (angiogenin (ANG); read-out: KI): 84 µM
Structure (SMILES): COc1cc(/N=N/c2cc(S(=O)(=O)O)cc3cc(S(=O)(=O)O)cc(O)c23)c(C)cc1/N=N/c1c(S(=O)(=O)O)cc2cc(Nc3ccccc3)ccc2c1O [NCI-47755]

Ki (angiogenin (ANG); read-out: KI): 234 µM
Structure (SMILES): O=S(=O)(O)c1ccccc1/N=N/c1c(S(=O)(=O)O)cc2cc(S(=O)(=O)O)c(/N=N/c3ccccc3S(=O)(=O)O)c(O)c2c1O [NCI-174066]

Ki (angiogenin (ANG); read-out: KI): 107 µM
Structure (SMILES): Cc1cc(S(=O)(=O)O)ccc1N=c1ccc2c(-c3ccccc3C(=O)O)c3ccc(Nc4ccccc4C)cc3oc-2c1 [violamine R]

Ki (angiogenin (ANG); read-out: KI): 195 µM
Structure (SMILES): Nc1ccc2c(O)c(/N=N/c3ccc(-c4ccc(/N=N/c5c(S(=O)(=O)O)cc6cc(S(=O)(=O)O)c(/N=N/c7cc(Cl)ccc7Cl)c(N)c6c5O)cc4)cc3)c(S(=O)(=O)O)cc2c1 [NCI-77521]

Ki (angiogenin (ANG); read-out: KI): 112 µM
Structure (SMILES): Nc1ccc2cc(S(=O)(=O)O)cc(O)c2c1N=Nc1ccc(-c2ccc(N=Nc3cc(S(=O)(=O)O)c4ccccc4c3N)cc2)cc1 [direct red 13]

Ki (angiogenin (ANG); read-out: KI): 23 µM
Structure (SMILES): Nc1c(/N=N/c2ccc(-c3ccc(/N=N/c4c(O)ccc5cc(S(=O)(=O)O)cc(S(=O)(=O)O)c45)cc3)cc2)c(S(=O)(=O)O)cc2cc(S(=O)(=O)O)c(/N=N/c3ccccc3)c(O)c12 [NCI-79741]

Ki (angiogenin (ANG); read-out: KI): 29 µM
Structure (SMILES): COc1cc(/N=N/c2ccc(S(=O)(=O)O)cc2)ccc1/N=N/c1c(O)ccc2cc(S(=O)(=O)O)ccc12 [NCI-65553]

Further lines, the compound ahead of its results:

Structure (SMILES): O=C(Nc1ccc(Cc2ccc(NC(=O)c3cccc([N+](=O)[O-])c3)c(C(=O)O)c2)cc1C(=O)O)c1cccc([N+](=O)[O-])c1 [CB-467929]
IC50 (MMLV RT RNase H): ~20 µM | % Cleavage (MMLV RT RNase H; inhibitor 8 μM): 42% | % Cleavage (MMLV RT RNase H; inhibitor 40 μM): 8% | Ki (angiogenin (ANG); [3]): 24 µM

Structure (SMILES): O=[N+]([O-])c1cc(/N=N/c2c(O)ccc3cc(S(=O)(=O)O)ccc23)c(O)c([N+](=O)[O-])c1 [NCI-65820]
Tighter binding to ANG than to RNase A [1]: 1.5 fold | Ki (angiogenin (ANG); read-out: KI): 25 µM

Structure (SMILES): Nc1ccc(/N=N/c2ccc(-c3ccc(O)cc3)cc2)c2ccc(S(=O)(=O)O)cc12 [Tyger-65828]
Percentage of Tumor-Bearing Mice, day 14 ([2]; 4 μg s.c. 6 times per week): 8% | Percentage of Tumor-Bearing Mice, day 17 ([2]; 4 μg s.c. 6 times per week): 42% | Percentage of Tumor-Bearing Mice, day 21 ([2]; 4 μg s.c. 6 times per week): 67% | Percentage of Tumor-Bearing Mice, day 24 ([2]; 4 μg s.c. 6 times per week): 100% | Percentage of Tumor-Bearing Mice, day 32 ([2]; 4 μg s.c. 6 times per week): 100% | Percentage of Tumor-Bearing Mice, day 35 ([2]; 4 μg s.c. 6 times per week): 100% | Percentage of Tumor-Bearing Mice, day 14 ([2]; 8 μg s.c. 6 times per week): 0% | Percentage of Tumor-Bearing Mice, day 17 ([2]; 8 μg s.c. 6 times per week): 45% | Percentage of Tumor-Bearing Mice, day 21 ([2]; 8 μg s.c. 6 times per week): 55% | Percentage of Tumor-Bearing Mice, day 24 ([2]; 8 μg s.c. 6 times per week): 82% | Percentage of Tumor-Bearing Mice, day 32 ([2]; 8 μg s.c. 6 times per week): 91% | Percentage of Tumor-Bearing Mice, day 35 ([2]; 8 μg s.c. 6 times per week): 100% | Percentage of Tumor-Bearing Mice, day 14 ([2]; 20 μg s.c. 6 times per week): 0% | Percentage of Tumor-Bearing Mice, day 17 ([2]; 20 μg s.c. 6 times per week): 25% | Percentage of Tumor-Bearing Mice, day 21 ([2]; 20 μg s.c. 6 times per week): 33% | Percentage of Tumor-Bearing Mice, day 24 ([2]; 20 μg s.c. 6 times per week): 92% | Percentage of Tumor-Bearing Mice, day 32 ([2]; 20 μg s.c. 6 times per week): 100% | Percentage of Tumor-Bearing Mice, day 35 ([2]; 20 μg s.c. 6 times per week): 100% | Percentage of Tumor-Bearing Mice, day 14 ([2]; 40 μg s.c. 6 times per week): 8% | Percentage of Tumor-Bearing Mice, day 17 ([2]; 40 μg s.c. 6 times per week): 33% | Percentage of Tumor-Bearing Mice, day 21 ([2]; 40 μg s.c. 6 times per week): 33% | Percentage of Tumor-Bearing Mice, day 24 ([2]; 40 μg s.c. 6 times per week): 83% | Percentage of Tumor-Bearing Mice, day 32 ([2]; 40 μg s.c. 6 times per week): 92% | Percentage of Tumor-Bearing Mice, day 35 ([2]; 40 μg s.c. 6 times per week): 100% | Time of appearance of tumors (Example 3, Table 1) ([2]; treatment s.c. 6 times per week): delayed considerably the time of appearance of tumors | Ki for inhibition of the ribonucleolytic activity of angiogenin (angiogenin (ANG); 20 mM Hepes, 100 mM NaCl, pH 7.0, 37° C.): indistinguishable from that of the NCI compound

Structure (SMILES): O=C(N/N=C(\c1ccccc1)c1ccncc1)c1ccccc1 [NCI-227726, N′-[phenyl(4-pyridinyl)methylene] benzohydrazide, reference compound]
% Cleavage (MMLV RT RNase H; inhibitor 100 μM): 45% | % Cleavage (MMLV RT RNase H; inhibitor 524 μM): 43% | % Cleavage (MMLV RT RNase H; inhibitor 1000 μM): 47%

Structure (SMILES): O=C(Nc1ccc(Cc2ccc(NC(=O)c3ccc(-c4ccccc4)cc3)c(C(=O)O)c2)cc1C(=O)O)c1ccc(-c2ccccc2)cc1 [CB-473872]
Tighter binding to ANG than to RNase A [1]: 2.3 fold | Ki (angiogenin (ANG); [3]): 20 µM

Structure (SMILES): O=S(=O)(O)c1cc(/N=N/c2c(O)ccc3ccccc23)c2c(O)c(/N=N/c3ccc(S(=O)(=O)O)c4ccccc34)c(S(=O)(=O)O)cc2c1 [NCI-8674]
Ki (angiogenin (ANG); read-out: KI): 158 µM

Structure (SMILES): COc1ccc(/C=N/c2c(O)ccc3ccccc23)cc1OC [NCI-17061]
Ki (angiogenin (ANG); read-out: KI): 900 µM

Structure (SMILES): Nc1ccc(/N=N/c2ccc(-c3ccc(/N=N/c4c(S(=O)(=O)O)cc5cc(S(=O)(=O)O)c(/N=N/c6ccccc6)c(O)c5c4N)cc3)cc2)c2ccc(S(=O)(=O)O)cc12 [NCI-79596]
Ki (angiogenin (ANG); read-out: KI): 5 µM

Structure (SMILES): O=[N+]([O-])c1ccc(/N=N/c2c(O)ccc3cc(S(=O)(=O)O)ccc23)cc1 [NCI-45538]
Ki (angiogenin (ANG); read-out: KI): 305 µM

Structure (SMILES): O=[N+]([O-])c1ccc(/N=N/c2c(O)c(/N=N/c3cc([N+](=O)[O-])cc([N+](=O)[O-])c3O)cc(/N=N/c3cc(S(=O)(=O)O)cc4cc(S(=O)(=O)O)cc(O)c34)c2O)cc1 [NCI-47740]
Ki (angiogenin (ANG); read-out: KI): 15 µM

Structure (SMILES): O=[N+]([O-])c1ccc(/N=N/c2c(O)c(S(=O)(=O)O)cc3cc(S(=O)(=O)O)ccc23)cc1 [NCI-45540]
Ki (angiogenin (ANG); read-out: KI): 307 µM

Structure (SMILES): Cc1ccc(/N=N/c2c(O)c(S(=O)(=O)O)cc3cc(S(=O)(=O)O)ccc23)c(C)c1 [xylidene ponceau 2R]
Ki (angiogenin (ANG)): 49 µM
